Consider 17 molecules from paper PMC5607165, “Synthesis of UDP-apiose in Bacteria: The marine phototroph Geminicoccus roseus and the plant pathogen Xanthomonas pisi” (PLoS ONE, 2017).

Data set [1] addresses GrUAS (Geminicoccus roseus, UniProt A0A291B0F6). As to the kind of experiment: HPLC, UDP-GlcA consumption with additive. The data set is classed as biochemical. As to conditions: 1 mM UDP-GlcA, 1 mM NAD+, 50 mM Tris-HCl pH 7.9, 37 °C; additive concentration not given; residual activity versus water. An excerpt:
HPLC, UDP-GlcA consumption with additive on GrUAS

Data set [2] deals with T1, XpUAS (Xanthomonas pisi, UniProt A0A291B0F1).
T1 construct: gene XpiCFBP4643_06440
T1 sequence (A0A291B0F1 1-375): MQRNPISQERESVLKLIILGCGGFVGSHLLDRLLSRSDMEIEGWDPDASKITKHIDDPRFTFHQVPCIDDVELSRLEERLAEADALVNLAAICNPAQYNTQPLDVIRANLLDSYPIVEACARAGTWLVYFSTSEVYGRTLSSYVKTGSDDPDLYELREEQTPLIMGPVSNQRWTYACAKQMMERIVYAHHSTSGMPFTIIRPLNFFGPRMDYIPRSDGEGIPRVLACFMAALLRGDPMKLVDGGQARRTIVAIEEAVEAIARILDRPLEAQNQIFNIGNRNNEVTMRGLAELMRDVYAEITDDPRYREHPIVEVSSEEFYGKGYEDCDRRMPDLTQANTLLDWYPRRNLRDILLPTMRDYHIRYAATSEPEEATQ
As to the kind of experiment: HILIC-ESI-MS/MS and 1H NMR of products. The conditions noted are these: 1 mM NAD+, 1 mM UDP-GlcA, 50 mM Tris-HCl pH 7.9, 37 °C; products UDP-apiose and UDP-xylose. The data set is classed as biochemical.

Data set [3] concerns the target T2, CeUAS (Candidatus Entotheonella factor, UniProt W4LSK8).
T2 construct: gene ETSY1_09345
As to the kind of experiment: HILIC-ESI-MS/MS and 1H NMR of products. The data set is classed as biochemical. As to conditions: 1 mM NAD+, 1 mM UDP-GlcA, 50 mM Tris-HCl pH 7.9, 37 °C; products UDP-apiose and UDP-xylose.

Data set [4] deals with Geminicoccus roseus UDP-apiose/UDP-xylose synthase (GrUAS), recombinant His6-tagged (Geminicoccus roseus). As to the kind of experiment: SEC; Superdex75 gel filtration of purified recombinant GrUAS; mass estimated from the elution times of standard protein markers; activity of the fractions determined by HPLC; method as previously described [31].
Substrate in data set [5]: O=C(O)[C@H]1O[C@H](OP(=O)(O)OP(=O)(O)OC[C@H]2O[C@@H](n3ccc(=O)[nH]c3=O)[C@H](O)[C@@H]2O)[C@H](O)[C@@H](O)[C@@H]1O
As to the kind of experiment: HPLC anion exchange, UDP-GlcA depletion. As to conditions: 1 mM NAD+, 50 mM Tris-HCl pH 7.9, 37 °C, 7 min. The data set is classed as biochemical, Geminicoccus roseus. An excerpt:
HPLC anion exchange, UDP-GlcA depletion on GrUAS

Usually stoichiometry N stands for the number of molecules, sites or subunits per partner or assembly. One may read the Km as the substrate concentration at which the rate is half of its maximum. Usually Vmax stands for the top rate of the reaction or transport when substrate is in excess.

T2 sequence (W4LSK8 entry or part of it): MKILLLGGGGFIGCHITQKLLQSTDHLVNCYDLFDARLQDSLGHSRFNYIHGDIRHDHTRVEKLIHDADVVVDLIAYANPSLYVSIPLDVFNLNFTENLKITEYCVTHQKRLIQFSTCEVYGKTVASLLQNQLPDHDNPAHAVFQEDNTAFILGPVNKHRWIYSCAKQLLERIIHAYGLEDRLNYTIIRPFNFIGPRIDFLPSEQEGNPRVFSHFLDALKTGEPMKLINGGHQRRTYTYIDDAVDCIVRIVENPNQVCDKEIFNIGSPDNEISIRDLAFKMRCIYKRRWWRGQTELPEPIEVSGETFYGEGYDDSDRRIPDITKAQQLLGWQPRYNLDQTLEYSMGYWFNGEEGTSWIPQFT

Take `Nc1ccn([C@@H]2O[C@H](COP(=O)(O)OP(=O)(O)O)[C@@H](O)[C@H]2O)c(=O)n1` [CDP]: in data set [1], the “Relative activity (%)^a” value came to 85.3 ± 4.6%.
With `Nc1ccn([C@@H]2O[C@H](COP(=O)(O)O)[C@@H](O)[C@H]2O)c(=O)n1` [CMP], the “Relative activity (%)^a” value in data set [1] is 93.8 ± 4.5%.
Take `Nc1nc2c(ncn2[C@@H]2O[C@H](COP(=O)(O)OP(=O)(O)O)[C@@H](O)[C@H]2O)c(=O)[nH]1` [GDP]: the “Relative activity (%)^a” value in data set [1] is 85.2 ± 7.9%.
`Nc1nc2c(ncn2[C@@H]2O[C@H](COP(=O)(O)O)[C@@H](O)[C@H]2O)c(=O)[nH]1` [GMP]: the “Relative activity (%)^a” value in data set [1] is listed as 94.3 ± 3.7%.
Same read-out and setting: with `NC(=O)C1=CN([C@@H]2O[C@H](COP(=O)(O)OP(=O)(O)OC[C@H]3O[C@@H](n4cnc5c(N)ncnc54)[C@H](O)[C@@H]3O)[C@@H](O)[C@H]2O)C=CC1` [NADH] the figure was 105.3 ± 1.9%.
As to `NC(=O)C1=CN([C@@H]2O[C@H](COP(=O)(O)OP(=O)(O)OC[C@H]3O[C@@H](n4cnc5c(N)ncnc54)[C@H](OP(=O)(O)O)[C@@H]3O)[C@@H](O)[C@H]2O)C=CC1` [NADPH], in data set [1], the “Relative activity (%)^a” value was determined as 82.6 ± 0.9%.
Regarding `NC(=O)c1ccc[n+]([C@@H]2O[C@H](COP(=O)(O)OP(=O)(O)OC[C@H]3O[C@@H](n4cnc5c(N)ncnc54)[C@H](OP(=O)(O)O)[C@@H]3O)[C@@H](O)[C@H]2O)c1` [NADP], the “Relative activity (%)^a” value in data set [1] was 79.6 ± 3.3%.
Take `Cc1cn([C@H]2C[C@H](O)[C@@H](COP(=O)(O)OP(=O)(O)O)O2)c(=O)[nH]c1=O` [TDP]: in data set [1], the “Relative activity (%)^a” value was found to be 85.0 ± 4.8%.
Consider `Cc1cn([C@H]2C[C@H](O)[C@@H](COP(=O)(O)O)O2)c(=O)[nH]c1=O` [TMP], for which, in data set [1], the “Relative activity (%)^a” value is reported as 87.9 ± 4.9%.
On to `O=C(O)[C@H]1O[C@H](OP(=O)(O)OP(=O)(O)OC[C@H]2O[C@@H](n3ccc(=O)[nH]c3=O)[C@H](O)[C@@H]2O)[C@H](O)[C@@H](O)[C@@H]1O` [UDP-GlcA], for which the “HILIC-ESI-MS/MS and 1H NMR of products” value in data set [2] and in data set [3] was “Each purified UAS was shown by HILIC-ESI-MS/MS to convert UDP-GlcA to two UDP-pentose products” each time.
For `O=c1ccn([C@@H]2O[C@H](COP(=O)(O)OP(=O)(O)O[C@H]3OC[C@H](O)[C@H](O)[C@H]3O)[C@@H](O)[C@H]2O)c(=O)[nH]1` [UDP-arabinose], the “Relative activity (%)^a” value in data set [1] worked out at 88.5 ± 5.6%.
For the molecule `O=C(O)[C@H]1O[C@H](OP(=O)(O)OP(=O)(O)OC[C@H]2O[C@@H](n3ccc(=O)[nH]c3=O)[C@H](O)[C@@H]2O)[C@H](O)[C@@H](O)[C@H]1O` [UDP-galacturonic acid], the “Relative activity (%)^a” value in data set [1] was 33.4 ± 9.5%.
As for `O=c1ccn([C@@H]2O[C@H](COP(=O)(O)OP(=O)(O)O[C@H]3OC[C@@H](O)[C@H](O)[C@H]3O)[C@@H](O)[C@H]2O)c(=O)[nH]1` [UDP-xylose], the “Relative activity (%)^a” value in data set [1] is given as 91.4 ± 5.6%.
As to `O=c1ccn([C@@H]2O[C@H](COP(=O)(O)OP(=O)(O)O)[C@@H](O)[C@H]2O)c(=O)[nH]1` [UDP], the “Relative activity (%)^a” value in data set [1] came out at 72.6 ± 5.5%.
On to `O=c1ccn([C@@H]2O[C@H](COP(=O)(O)O)[C@@H](O)[C@H]2O)c(=O)[nH]1` [UMP], for which the “Relative activity (%)^a” value in data set [1] is recorded as 92.6 ± 5.0%.
As for “Geminicoccus roseus UDP-apiose/UDP-xylose synthase (GrUAS), recombinant His6-tagged (enzyme)”, in data set [4], the stoichiometry N was 2.

B1: GrUAS (Geminicoccus roseus) (protein)
chain: MRVVILGCGGFVGSHLLDNLLRDESYLIEGWDPEDRKIRQHLDNPRFTLHRSIANAPEALVEVERAIRECDVVVNLAAICNPADYNTRPLSVIRANLFEVYPIVELCAKYKRWLVSFSTSETYGRTIASYLPAGTYDDPELYELREDETPLIMGPIRNQRWTYACAKQMTERLIYAHHDEEGLPFTIIRPLNFFGPRMDYIPTRDGDGVPRVLACFMAALLSGEPMQLVDGGQARRTIVSIYEAVDAIRRVLERPETSQNQIFNIGNPNNEVTIAELADAMRRTYARITGDARYNDHPIVVTTADAFYGAGYEDCDRRMPDISKAERLLGWVPRMSLAEVLYGTMQSYHDTYTAPKAA
Turning to B1, in data set [5], the Km is 251 ± 44.6 µM and the Vmax was 4.22 µM/min.
